This is an account of results in paper PMC8704491, “Prothoracicostatic Activity of the Ecdysis-Regulating Neuropeptide Crustacean Cardioactive Peptide (CCAP) in the Desert Locust” (International Journal of Molecular Sciences, 2021).

Experiment [1] relates to prothoracic gland (PG) explants. Kind of experiment: ecdysteroid secretion by prothoracic gland explants. The arrangement: species or system Schistocerca gregaria. The note with it: 1 µM CCAP, 24 h, 50 µL Grace's insect medium, 30 °C, PG from N5IW nymphs, n = 16 vs n = 15, p < 0.001. The procedure:
Figure 6 Ecdysteroid secretion by prothoracic gland (PG) explants incubated for 24 h in a volume of 50 µL Grace’s insect medium (GI) with or without 1 µM CCAP. PGs were micro-dissected from fifth instar (N5) nymphs at N5IW (inter-wing distance of at least 1.8 mm; GI, n = 15; GI + 1 µM CCAP, n = 16) Each data point represents 20E-equivalents secreted by PG from a single nymph. Mean ± S.E.M. is also indicated per group. Significant difference (p < 0.001) is indicated by asterisks (***) and was calculated by an unpaired t-test with Welch’s correction. Used abbreviations: CCAP = crustacean cardioactive peptide and GI = Grace’s Insect Medium.
To correlate the locust’s morphology to the nymphal ecdysteroid titer that regulates molting, hemolymph was collected as well at the described sampling moments. 20 µL hemolymph from each N5 animal was collected into 280 µL cold ethanol. Each sample was further processed as previously described. The ecdysteroid titers were subsequently quantified using the 20-Hydroxyecdysone ELISA kit (Bertin Technologies, Montigny-le-Bretonneux, France), according to the manufacturer’s protocol.
PGs of N5IW nymphs were micro-dissected in S. gregaria saline solution and incubated in 50 µL Grace’s Insect medium (GI) (Invitrogen, Waltham, MA, USA) containing 1 µM CCAP or in GI without peptide. […]

Experiment [2] concerns heartbeat and skeletal muscles. Also noted: method as in PMID 9151755, PMID 18835439, PMID 16968777. The note with it: released into hemolymph during ecdysis; ref [14],[15],[33]; cited from earlier work.
Experiment [3] concerns Schgr-CCAPR-2. Kind of experiment: aequorin bioluminescence assay, CHO-PAM28 cells. The following applies: CHO-PAM28 cells lacking Gα16, aequorin; three independent experiments, in triplicate. It is filed as cell-based, Schistocerca gregaria. From the text:
(§1) To deorphanize the three GPCRs, they were heterologously expressed in Chinese hamster ovary (CHO)-WTA11 cells, which stably express aequorin and a promiscuous Gα16 subunit. […] Intracellular signaling of Schgr-CCAPR-1, -2 and -3 was investigated in Schgr-CCAPR-expressing cells lacking the promiscuous Gα16 subunit (CHO-PAM28 cells) or co-expressing a cyclic AMP (cAMP) response element (CRE)-luciferase reporter (human embryonic kidney (HEK) 293T). In Schgr-CCAPR expressing CHO-PAM28 cells, Schgr-CCAP induced dose-dependent aequorin-based bioluminescent responses, with EC50 values in the subnanomolar range: 0.7 nM, 0.2 nM and 0.5 nM for Schgr-CCAPR-1, -2 and -3, respectively (Figure S4A).
(§2) Aequorin and CRE(6x)-luc reporter assays, as well as maintenance of the cell cultures and cell transfections, were carried out as previously described. […] Minimum bioluminescence values correlate with the signal obtained in the blank condition (without exposure to S. gregaria peptides). Calculations were performed using the output file from the Microwin software (Berthold Technologies, Bad Wildbad, Germany) in Excel (Microsoft). Half-maximal effective concentrations (EC50) were determined with the PRISM software (Graphpad version 6.03) using non-linear regression, log(agonist) vs. normalized response, applied to a sigmoidal dose-response model. […]
(§3) S c h g r-C C A P R -1 E C5 0 = 0 ,7 n M
(§4) S c hg r-C C A P R -2 E C5 0 = 0 ,2 n M
(§5) S c h g r-C C A P R -3 E C5 0 = 0 ,5 n M
(§6) S c h g r-C C A P R -1 E C5 0 = 0 ,0 1 n M
(§7) S c hg r-C C A P R -2 E C5 0 = 1 ,2 n M
(§8) S c hg r-C C A P R -3 E C5 0 = 0 ,0 5 n M
(§9) Dose-response curves induced by CCAP for cell -based receptor activity assays A) in CHO-PAM28-Schgr -CCAPR-1, -2 or -3 cells and B) in HEK293T Schgr -CCAPR-1, -2 or -3 cells, co - transfected with CRE(6x)-Luc construct. These cell-based receptor activity data were obtained from three independent experiments. The bioluminescence was measured in triplicate per concentration of Schgr -CCAP and per transfection. Error bars represent the S.E.M and the 100 % level refers to the maximal response level. […]

Experiment [4] relates to Schgr-CCAPR-3. Nature of the experiment: aequorin bioluminescence assay, CHO-PAM28 cells. It is filed as cell-based, Schistocerca gregaria. The note with it: CHO-PAM28 cells lacking Gα16, aequorin; three independent experiments, in triplicate.
Excerpt: as §1, §2, §3, §4, §5, §6, §7, §8, §9

In experiment [5] the test system is Schgr-CCAPR-1. Kind of experiment: aequorin bioluminescence assay, CHO-PAM28 cells. It is filed as cell-based, Schistocerca gregaria. The following applies: CHO-PAM28 cells lacking Gα16, aequorin; three independent experiments, in triplicate.
Excerpt: as §1, §2, §3, §4, §5, §6, §7, §8, §9

Another experiment deals with 20E levels. The following applies: daily injection, adult American cockroach; ref [35]; cited from earlier work. The procedure:
High relative transcript levels of the Schgr-CCAPRs were determined in the PG at N5WD. […] From these observations we conclude that CCAP acts directly on the prothoracic gland as a prothoracicostatic factor. In contrast to the ecdysiostatic activity of CCAP in S. gregaria nymphs, dai ...

Experiment [6] relates to Schgr-CCAPR-2. Kind of experiment: aequorin bioluminescence assay, CHO-WTA11 cells. It is filed as cell-based, Schistocerca gregaria.
Excerpt: as §1
(§10) Figure 2 Aequorin-based bioluminescent responses in cell-based receptor activity assays. (A) Dose-response curves induced by CCAP in CHO-WTA11-Schgr-CCAPR-1, -2 or -3 cells. The EC50 values are indicated. (B) Results for aequorin-based bioluminescent response induced in CHO-WTA11-Schgr-CCAPR-1, -2 and -3 cells upon addition of 1 µM of peptide. These cell-based receptor activity data were obtained from three independent experiments. The cell-based assays were executed in three independent transfections. Error bars in dose-response curves represent the S.E.M and the 100% level refers to the maximal response level. Agonist selectivity was normalized to bioluminescent response acquired by exposure to CCAP. The zero-response level corresponds to treatment with BSA medium only. Abbreviations: Schgr = Schistocerca gregaria, CCAP = crustacean cardioactive peptide, CCAPR = CCAP receptor, CCHa = CCHamide, ASTC = allostatin C, ASTCCC = allostatin CCC, Crz = corazonin, AKH I(I) = adipokinetic hormone I(I), INT = inotocin.
(§11) Aequorin and CRE(6x)-luc reporter assays, as well as maintenance of the cell cultures and cell transfections, were carried out as previously described. […] Minimum bioluminescence values correlate with the signal obtained in the blank condition (without exposure to S. gregaria peptides). Calculations were performed using the output file from the Microwin software (Berthold Technologies, Bad Wildbad, Germany) in Excel (Microsoft). Half-maximal effective concentrations (EC50) were determined with the PRISM software (Graphpad version 6.03) using non-linear regression, log(agonist) vs. normalized response, applied to a sigmoidal dose-response model.

Experiment [7] concerns Schgr-CCAPR-3. Nature of the experiment: aequorin bioluminescence assay, CHO-WTA11 cells. In kind it is cell-based, Schistocerca gregaria.
Excerpt: as §1, §10, §11

Experiment [8] concerns Schgr-CCAPR-1. Nature of the experiment: aequorin bioluminescence assay, CHO-WTA11 cells. It is filed as cell-based, Schistocerca gregaria.
Excerpt: as §1, §10, §11

In another experiment the test system is locust oviducts. The following applies: Ca^2+-dependent, ref [32]; cited from earlier work. An excerpt:
The three Schgr-CCAPRs show high sequence similarity to deorphanized CCAP receptors of D. melanogaster, T. castaneum and R. prolixus. Although only one CCAP receptor has been identified in many insect species, there are other species, such as S. gregaria, which have multiple isoforms. […] This is a commonly occurring feature during evolution of GPCR genes in both vertebrates and invertebrates. To supp ...

Experiment [9] deals with Schgr-CCAPpre depleted nymphs. Nature of the experiment: rescue of Schgr-CCAPpre depleted nymphs by CCAP injection. In kind it is in vivo, Schistocerca gregaria. The note with it: daily 0.92 pg CCAP in 4 µL saline throughout N5; 18/30; vs saline; p < 0.05, Fisher's exact test. The procedure: Figure 4 Phenotypic effect of Schgr-CCAPpre or Schgr-CCAPR-1, -2 and/or -3 depletion on ecdysis. (A) Percentage of nymphs displaying ecdysis arrest at nymphal-adult (N5-Ad) molt (n = 25, per construct). Nymphs were injected at N4D0, N4D4, N5D1, N5D4 and N5D7 with 400 ng of dsGFP (control), dsCCAPpre, dsCCAPR1/2/3a, dsCCAPR1/2/3b, dsCCAPR-1, dsCCAPR-2 or dsCCAPR-3. (B) Percentage of nymphs displaying ecdysis arrest at nymphal-nymphal (N4–N5) and N5-Ad molts (n = 25, per construct). Nymphs were injected in late N3, N4D1 and N4D4 with 400 ng of dsGFP (control), dsCCAPpre or dsCCAPR1/2/3a. (C) The timing of ecdysis initiation in dsGFP (control), dsCCAPpre (Schgr-CCAPpre knockdown) and dsCCAPR1/2/3a (Schgr-CCAPRs knockdown) injected nymphs, as observed starting from freshly molted fifth instar nymphs. A log-rank (Mantel-Cox) test was used to check for significant differences in ecdysis initiation between populations. (D) Rescue of Schgr-CCAPpre depleted nymphs (n = 30) by additional daily injections of 0.92 pg CCAP in 4 µL S. gregaria saline in N5. In the control groups, nymphs received dsGFP injections or dsCCAPpre injections (n = 31), with additional daily injections of S. gregaria saline in N5. Significant differences (p < 0.05) are indicated by an asterisk (*) and calculated by the Fisher’s exact test. (E) Ecdysis deficient phenotype (top photos). […]

Experiment [10] relates to Schgr-CCAPR-2. Nature of the experiment: CRE(6x)-luc reporter assay, HEK-293T cells. It is filed as cell-based, Schistocerca gregaria. The following applies: CRE-controlled luciferase, three independent experiments, in triplicate.
Excerpt: as §1, §2, §3, §4, §5, §6, §7, §8, §9
For orientation: Reporter assays use an easily measured gene product as a stand-in for the process of interest.

The subject of experiment [11] is Schgr-CCAPR-3. Nature of the experiment: CRE(6x)-luc reporter assay, HEK-293T cells. In kind it is cell-based, Schistocerca gregaria. The note with it: CRE-controlled luciferase, three independent experiments, in triplicate.
Excerpt: as §1, §2, §3, §4, §5, §6, §7, §8, §9

The test system of experiment [12] is Schgr-CCAPR-1. Nature of the experiment: CRE(6x)-luc reporter assay, HEK-293T cells. It is filed as cell-based, Schistocerca gregaria. The following applies: CRE-controlled luciferase, three independent experiments, in triplicate.
Excerpt: as §1, §2, §3, §4, §5, §6, §7, §8, §9

[13] abbreviates: 1 µM peptide, normalized to CCAP response.
The mark [14] stands for this setting: aequorin and promiscuous Gα16, three independent experiments.

As a reminder, the EC50 is the concentration that produces a half-maximal response. Lower therefore signals higher potency in that assay. crustacean cardioactive peptide [CCAP]: the “ecdysteroid secretion (prothoracicostatic activity)” value in experiment [1] was “significant prothoracicostatic activity”; in experiment [1] (listed as Schgr-CCAP), “suppressed ecdysteroid secretion”. Further, the “heartbeat and contraction of skeletal muscles” value in experiment [2] was “stimulate heartbeat and contraction of skeletal muscles”. The EC50 with Schgr-CCAPR-2 [3] is 0.2 nM; in the experiment with Schgr-CCAPR-3 [4], 0.5 nM; with Schgr-CCAPR-1 [5] it was 0.7 nM; with Schgr-CCAPR-2 [6] (setting [14]), 0.32 nM; in the experiment on Schgr-CCAPR-3 [7] (setting [14]), 0.59 nM; in the experiment with Schgr-CCAPR-1 [8] (setting [14]), 3.65 nM. The EC50 in the experiment with Schgr-CCAPR-2 [10] worked out at 1.2 nM; with Schgr-CCAPR-3 [11], 0.05 nM; with Schgr-CCAPR-1 [12] it was 0.01 nM. Besides, in the experiment on 20E levels, the 20E levels result is on record as “elevated 20E levels”. The “agonist selectivity, receptor activation” value with Schgr-CCAPR-2 [6] (setting [13]), in the experiment with Schgr-CCAPR-3 [7] (setting [13]) and in the experiment on Schgr-CCAPR-1 [8] (setting [13]) was “markedly activated” in each case. Also, in the experiment with locust oviducts, the oviduct contractions result was “induces Ca^2+-dependent contractions”. Besides, in [9], the “rescue effect of ecdysis deficiency phenotype” value was 60%.
